In patent US12384769B2, “Heteroaryl-substituted aminoalkyl azole compounds as pesticides” (Elanco Animal Health GmbH, priority 2019, dated 2025) one finds pest or weed control and mortality data, which are given here for one molecule.

Common to all, as to assay type: in vivo
The test system of test [1] is Rhipicephalus microplus (strain Parkhurst, resistant against synthetic pyrethroids). The test is described as follows: Rhipicephalus microplus in-vitro contact test, larval cattle tick (BOOPMI Contact). The note with it: 5 μg/cm^2 (=500 g/ha), after 48 hours, read-out: activity (efficacy, larvae dead or moribund). The method, boiled down: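 Efficacy, expressed as percentage of larvae dead or moribund, is judged by negative geotactic behaviour 48 h after larvae (20-50 per tube) enter tubes whose inner walls carry a dried acetone film of compound, 5 μg/cm² at 900 ppm. Incubation: horizontal, 27 °C, 85% relative humidity.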

Test [2] deals with Culex quinquefasciatus strain P00. The test is described as follows: Culex quinquefasciatus test (CULXFA surface treatment & contact assay). The note with it: 30 minutes exposure, 24 hours after contact, read-out: efficacy (mortality). On the procedure:
Culex quinquefasciatus Test (CULXFA Surface Treatment & Contact Assay)
(§1) Solvent: Aceton+2000 ppm rapeseed oil methyl ester (RME)
In order to produce a sufficient, active ingredient containing solution it is necessary to solve the test compound in the solvent-mix (acetone at 2 mg/mL/RME 2 000 ppm). This solution is pipetted onto a glazed tile and after evaporation of the acetone, adult mosquitoes of the species Culex quinquefasciatus strain P00 are placed onto the dried surface. The exposure time is 30 minutes.
(§2) Mortality in percent (%) is determined 24 hours after contact of the insects to the treated surface. 100% mortality means that all tested insects are dead, whereas 0% means that no insect died.

The next test deals with Myzus persicae. The test is described as follows: Myzus persicae oral test. The note with it: 120 h, after 5 days. On the procedure:
Solvent: 100 parts by weight acetone
Afterwards the plates are sealed with parafilm through which a mixed population of the green peach aphid (Myzus persicae) can suck on the compound preparation.
After 5 days mortality in % is determined. 100% means all aphids have been killed and 0% means none of the aphids have been killed.

Test [3] relates to Ctenocephalides felis. The test is described as follows: Ctenocephalides felis oral test (CTECFE). To be noted: 48 h, 100 ppm in cattle blood, after 2 days. The method, boiled down: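 About 20 adult unfed fleas fed through parafilm on cattle blood held at 37° C and dosed with compound from a DMSO concentrate; flea chamber at room temperature. Percent mortality scored after 2 days.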

For the next test, the system named is Boophilus microplus. The test is described as follows: Boophilus microplus injection test (BOOPMI Injection). The note with it: Rhipicephalus microplus, 168 h, injection into adult engorged female ticks, egg deposition after 7 days, read-out: activity (efficacy, infertile eggs). The essentials: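 Adult engorged female ticks (5 per group) injected into the abdomen with 1 μL compound in DMSO, then held in a climate chamber. Fertile egg deposition scored after 7 days, with unclear eggs kept until hatching (~42 days). Efficacy 100% = all eggs infertile, 0% = all fertile.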

For test [4], the system named is Musca domestica strain WHO-N. The test is described as follows: Musca domestica test (MUSCDO surface treatment & contact assay). The note with it: surface concentration 20 mg/m^2, glazed tile, 30 minutes exposure, 24 hours after contact, read-out: efficacy (mortality). Here is the method: Musca domestica Test (MUSCDO Surface Treatment & Contact Assay)
as §1
In order to produce a sufficient, active ingredient containing solution it is necessary to solve the test compound in the solvent-mix (acetone at 2 mg/mL/RME 2000 ppm). This solution is pipetted onto a glazed tile and after evaporation of the acetone, adult flies of the species Musca domestica strain WHO—N are placed onto the dried surface. The exposure time is 30 minutes.
as §2

Another test has as its system Diabrotica balteata. The test is described as follows: Diabrotica balteata spray test. To be noted: 168 h, 500 g/ha (=160 μg/well), wheat seeds, after 7 days, read-out: activity (efficacy, seedlings grown). The essentials:
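Efficacy was read 7 days after infesting each unit with 10–20 banded cucumber beetle larvae, as % of seedlings growing like untreated, uninfested controls. Before infestation, wheat seeds germinated 1 day on agar (5 per well) were sprayed with the active ingredient. The active was formulated in acetone/DMF and diluted in water containing emulsifier.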

Test [5] has as its system Ctenocephalides felis. The test is described as follows: Ctenocephalides felis in-vitro contact test, adult cat flea. To be noted: 5 μg/cm^2 (=500 g/ha), after 48 hours, read-out: activity (efficacy, fleas dead or moribund). The essentials: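 Acetone solutions coated onto inner walls of glass tubes; 900 ppm gives 5 μg/cm^2. After drying, 5-10 adult Ctenocephalides felis per tube held 48 h at room temperature. Fleas then placed on 45-50° C. plate for up to 5 min; those unable to climb away scored dead or moribund, efficacy as % dead/moribund.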

In general, mortality refers to the share of the test organisms that died. As to `C[C@H](Nc1nc2cc(C(F)(F)F)c(Cl)cc2o1)c1ncnn1-c1ncccn1` [Example I-001, 6-chloro-N-{(1S)-1-[1-(pyrimidin-2-yl)-1H-1,2,4-triazol-5-yl]ethyl}-5-(trifluoromethyl)-1,3-benzoxazol-2-amine], in test [1], the pest or weed control at 5 µg/cm2 worked out at 100%. Moreover, the mortality at 4 mg/m2 in test [2] (surface concentration 4 mg/m^2, glazed tile) was in the range of 90 to 100%. Also, the mortality at 20 mg/m2 in test [2] (surface concentration 20 mg/m^2, glazed tile) was 90 to 100%; in test [4], 90 to 100%. Moreover, in the test with Myzus persicae, the mortality at 4 ppm is 100%. This molecule returned a mortality at 100 ppm in the test on Ctenocephalides felis [3] of 100%. In addition, in the test on Boophilus microplus (4 μg/animal), the pest or weed control at 0.004 mg worked out at 100%. Besides, the pest or weed control at 0.02 mg in the test on Boophilus microplus (20 μg/animal) is 100%. In addition, the pest or weed control at 160 µg/disc, 500 g/ha in the test on Diabrotica balteata is 100%. The pest or weed control at 5 µg/cm2, 5 µg/cm2 in the test on Ctenocephalides felis [5] is 100%.
